Laboratory results: ChEMBL document CHEMBL5236579, “Hydrophobicity Determines the Bacterial Killing Rate of α-Helical Antimicrobial Peptides and Influences the Bacterial Resistance Development” (J Med Chem, 2022)
≈ marks a conversion by molar mass, not a printed value. Calls of active or inactive are those of the source. The calls are words filed in the database; no cut-off is given here. Where a SMILES comes first, the peptide text is derived from it.

Key:
Escherichia coli = assay: Antimicrobial activity against Escherichia coli ATCC27622 by two fold broth microdilution method; format: functional
Vibrio parahaemolyticus [1] = assay: Bactericidal activity against Vibrio parahaemolyticus ATCC17802 assessed as killing rate at 0.5 X MIC by measuring time limit of detection by bacterial killing kinetic assay; format: functional
Staphylococcus aureus [2] = assay: Antimicrobial activity against Staphylococcus aureus ATCC25923 by two fold broth microdilution method; format: functional
Bacillus cereus = assay: Antimicrobial activity against clinical isolates Bacillus cereus by two fold broth microdilution method; format: functional
Vibrio parahaemolyticus [3] = assay: Antimicrobial activity against Vibrio parahaemolyticus ATCC17802 by two fold broth microdilution method; format: functional
Staphylococcus aureus [4] = assay: Antimicrobial activity against clinical isolates Staphylococcus aureus by two fold broth microdilution method; format: functional
Cell membrane = assay: Induction of inner membrane permeabilization in Vibrio parahaemolyticus ATCC17802 assessed as increase in PI fluorescence intensity at 5 times MIC by propidium iodide penetration assay; format: cell membranes; settings: time <= 200.0 min
Vibrio parahaemolyticus [5] = assay: Induction of morphological changes in Vibrio parahaemolyticus ATCC17802 assessed as surface fibrosis incubated at 5 times MIC and measured after 180 mins by scanning electron microscopy based analysis; format: functional, organism-based
Vibrio parahaemolyticus [6] = assay: Induction of morphological changes in Vibrio parahaemolyticus ATCC17802 assessed as cellular inclusion leakage incubated at 5 times MIC and measured after 180 mins by scanning electron microscopy based analysis; format: functional, organism-based
HaCaT = assay: Cytotoxicity against human HaCaT cells incubated for 48 hrs by MTT assay; format: toxicity, cell-based; settings: dose < 250 µg/ml
Peritoneal macrophage = assay: Cytotoxicity against mouse peritoneal macrophage cells incubated for 48 hrs by MTT assay; format: toxicity, cell-based; settings: dose < 250 µg/ml
Vibrio parahaemolyticus [7] = assay: Induction of morphological changes in Vibrio parahaemolyticus ATCC17802 assessed as massive cell collapse incubated at 5 times MIC and measured after 180 mins by scanning electron microscopy based analysis; format: functional, organism-based

Compound	MIC (Escherichia coli) [µg/mL]	Time (Vibrio parahaemolyticus [1]) [min]	MIC (Staphylococcus aureus [2]; read-out: MIC) [µg/mL]	MIC (Bacillus cereus) [µg/mL]	MIC (Vibrio parahaemolyticus [3]) [µg/mL]	MIC (Staphylococcus aureus [4]) [µg/mL]	MIC (Staphylococcus aureus [2]) [µg/mL]	Activity (Cell membrane)	Activity (Vibrio parahaemolyticus [5])	Activity (Vibrio parahaemolyticus [6])	Activity (HaCaT)	Activity (Peritoneal macrophage)	Activity (Vibrio parahaemolyticus [7])
CC[C@H](C)[C@H](NC(=O)[C@H](CCCCN)NC(=O)[C@H](CCCNC(=N)N)NC(=O)[C@H](CCCNC(=N)N)NC(=O)[C@H](CC(C)C)NC(=O)[C@H](CCCCN)NC(=O)[C@H](CCCCN)NC(=O)[C@H](Cc1ccccc1)NC(=O)[C@H](CC(C)C)NC(=O)CNC(=O)[C@H](CCCNC(=N)N)NC(=O)[C@@H](N)CCCNC(=N)N)C(=O)N[C@@H](CCCCN)C(=O)N[C@@H](CCCCN)C(=O)NCC(=O)N[C@@H](Cc1ccccc1)C(=O)N[C@@H](CCCCN)C(=O)N[C@@H](CCCCN)C(=O)N[C@H](C(=O)N[C@@H](Cc1ccccc1)C(=O)N[C@@H](CCCCN)C(=O)N[C@@H](CCCNC(=N)N)C(=O)N[C@@H](CC(C)C)C(=O)N1CCC[C@H]1C(=O)N1CCC[C@H]1C(=O)N[C@H](C(=O)NCC(=O)N[C@H](C(=O)NCC(=O)N[C@H](C(=O)N[C@@H](CO)C(=O)N[C@H](C(=O)N1CCC[C@H]1C(=O)N[C@@H](CC(C)C)C(=O)N[C@@H](C)C(=O)NCC(=O)N[C@@H](CCCNC(=N)N)C(=O)N[C@@H](CCCNC(=N)N)C(=O)O)[C@@H](C)CC)C(C)C)C(C)C)C(C)C)[C@@H](C)CC (H-RRGLFKKLRRKIKKGFKKIFKRLPPVGVGVSIPLAGRR-OH)	9.38 (≈ 2.13 µM)	120	4.69 (≈ 1.07 µM)	4.69 (≈ 1.07 µM)	4.69 (≈ 1.07 µM)	9.38 (≈ 2.13 µM)	–	–	–	–	–	–	–
CC[C@H](C)[C@H](NC(=O)[C@H](CC(C)C)NC(=O)[C@H](CCCNC(=N)N)NC(=O)[C@H](CC(C)C)NC(=O)[C@H](CC(C)C)NC(=O)[C@H](CC(C)C)NC(=O)[C@H](CCCCN)NC(=O)[C@H](Cc1ccccc1)NC(=O)[C@H](CC(C)C)NC(=O)CNC(=O)[C@@H](N)CC(C)C)C(=O)N[C@@H](CC(C)C)C(=O)N[C@@H](CCCCN)C(=O)NCC(=O)N[C@@H](Cc1ccccc1)C(=O)N[C@@H](CCCCN)C(=O)N[C@@H](CC(C)C)C(=O)O (H-LGLFKLLLRLILKGFKL-OH)	> 200	–	–	> 200	> 200	> 200	> 200	–	–	–	–	–	–
CC[C@H](C)[C@H](NC(=O)[C@H](CCCCN)NC(=O)[C@H](CCCNC(=N)N)NC(=O)[C@H](C)NC(=O)[C@H](CC(C)C)NC(=O)[C@H](CCCCN)NC(=O)[C@H](CCCCN)NC(=O)[C@H](Cc1ccccc1)NC(=O)[C@H](CC(C)C)NC(=O)CNC(=O)[C@@H](N)CCCNC(=N)N)C(=O)N[C@@H](CCCCN)C(=O)N[C@@H](CCCCN)C(=O)NCC(=O)N[C@@H](Cc1ccccc1)C(=O)N[C@@H](CCCCN)C(=O)N[C@@H](CCCCN)C(=O)O (H-RGLFKKLARKIKKGFKK-OH)	9.38 (≈ 4.58 µM)	>180	4.69 (≈ 2.29 µM)	9.38 (≈ 4.58 µM)	4.69 (≈ 2.29 µM)	37.5 (≈ 18.3 µM)	–	Active	Active	Active	Dose-Dependent Effect	Dose-Dependent Effect	Active
CN[C@H](CC(C)C)C(=O)N[C@H]1C(=O)N[C@@H](CC(N)=O)C(=O)N[C@H]2C(=O)N[C@H]3C(=O)N[C@H](C(=O)N[C@H](C(=O)O)c4cc(O)cc(O)c4-c4cc3ccc4O)[C@H](O)c3ccc(c(Cl)c3)Oc3cc2cc(c3O[C@@H]2O[C@H](CO)[C@@H](O)[C@H](O)[C@H]2O[C@H]2C[C@](C)(N)[C@H](O)[C@H](C)O2)Oc2ccc(cc2Cl)[C@H]1O [VANCOMYCIN]	75 (≈ 51.8 µM)	–	0.59 (≈ 0.407 µM)	> 200	75 (≈ 51.8 µM)	> 200	–	–	–	–	–	–	–
CC[C@H](C)[C@H](NC(=O)[C@H](C)NC(=O)[C@H](CCCNC(=N)N)NC(=O)[C@H](C)NC(=O)[C@H](CC(C)C)NC(=O)[C@H](CCCCN)NC(=O)[C@H](CCCCN)NC(=O)[C@H](Cc1ccccc1)NC(=O)[C@H](CC(C)C)NC(=O)CNC(=O)[C@@H](N)CCCNC(=N)N)C(=O)N[C@@H](CCCCN)C(=O)N[C@@H](CCCCN)C(=O)NCC(=O)N[C@@H](Cc1ccccc1)C(=O)N[C@@H](CCCCN)C(=O)N[C@@H](CCCCN)C(=O)O (H-RGLFKKLARAIKKGFKK-OH)	9.38 (≈ 4.71 µM)	>180	9.38 (≈ 4.71 µM)	18.8 (≈ 9.42 µM)	4.69 (≈ 2.36 µM)	18.8 (≈ 9.42 µM)	–	Active	–	–	–	–	–
CC[C@H](C)[C@H](NC(=O)[C@H](CC(C)C)NC(=O)[C@H](CCCNC(=N)N)NC(=O)[C@H](CC(C)C)NC(=O)[C@H](CC(C)C)NC(=O)[C@H](CC(C)C)NC(=O)[C@H](CC(C)C)NC(=O)[C@H](Cc1ccccc1)NC(=O)[C@H](CC(C)C)NC(=O)CNC(=O)[C@@H](N)CC(C)C)C(=O)N[C@@H](CC(C)C)C(=O)N[C@@H](CCCCN)C(=O)NCC(=O)N[C@@H](Cc1ccccc1)C(=O)N[C@@H](CCCCN)C(=O)N[C@@H](CC(C)C)C(=O)O (H-LGLFLLLLRLILKGFKL-OH)	> 200	–	–	> 200	> 200	> 200	> 200	–	–	–	–	–	–
